Test results as given in patent US12187767B2 (priority 2021, dated 2025).
Entries after “also recorded” stand apart in the source; their conditions may differ. Read-outs that look alike come from different tables or passages of the source. Ends that are not written are not given here.

Experiments:
MCF-7 cells [1] = assay: Acetylcholinesterase (AchE) assay of exosome/EV release; assay type: cell-based; settings: for average AChE concentrations throughout days 1 to day 5 / AchE concentrations on day 3 / AchE concentrations, initial increase: MCF-7 cells; for average AChE concentrations throughout days 1 to day 5: five-day treatment at 37° C.; for AchE concentrations on day 3 / AchE concentrations, initial increase: five-day treatment; for AchE concentrations on day 3: mock 69.15; for AchE concentrations, initial increase: initial increase on days 1 and/or 2, mock 155.13
Procedure: (§1) 1.3. EV isolation and purification. EVs were isolated from cells by differential centrifugation as previously described (Ali SA. et al., 2010). Untreated cells were used as a control. Briefly, the above treated and untreated cell culture supernatants were centrifuged at 400×g for 10 minutes. The supernatants were transferred to a clear tube and centrifuged at 10,000×g for 30 minutes. The supernatants from the second spin were […] ultracentrifuged at 200,000×g for 2 hours to pellet the EVs. Finally, the EV pellets were re-suspended with PBS and stored at 4° C. until used for analysis.
(§2) 1.4. Exosome characterization by acetylcholinesterase (AchE) assay. Purified EVs were quantitated by measurement of AchE as described (Ellman et al., 1961). Briefly, a 100 mM dithibionitrobenzoic (DTNB) solution was prepared for use as a stock color indicator, and a 28.9 mg/mL acetylthiocholine iodide in PBS solution was prepared as a stock substrate. The stock substrate stock can be stored at −20° C. up to one month, while the color indicator can be stored at 4° C. for two weeks. A working solution was prepared by mixing 10 mL of PBS with 200 μL of Substrate and 500 μl of DTNB. 50 μL of each exosome sample was transferred to 96 well microtitre plates, and a standard curve was prepared using AchE from 0.98 mU/mL to 2000 mU/mL. After 50 μL of standards were added into separate wells, 200 μL of the working solution was added to all wells. After 20 min incubation, AchE activity was measured at 450 nm using a SpectroMax M5 fluorimeter.

MDA-MB-231 cells [2] = assay: as above; assay type: cell-based; settings: for average AChE concentration levels throughout day 1 to 5 / AChE on day 1 (initial increase): MDA-MB-231 cells; for average AChE concentration levels throughout day 1 to 5: five-day treatment at 37° C.; for AChE on day 1 (initial increase): five-day treatment, mock 146.52
Procedure: as §1, §2

K562 cells [3] = assay: Western blot analysis of EV protein content; assay type: cell-based; settings: 48 hours treatment
Procedure: as §1
(§3) 1.6. Western blot analysis. EVs were isolated from culture supernatants as described above. Protein concentrations were determined by measuring absorbance at 280 nm (Nanodrop 2000). Protein samples were denatured in SDS-PAGE sample buffer by heating at 95° C. for 15 min. Criterion TGX Precast Gels (4-20% Bio-Rad, Richmond, CA) were used to separate the proteins and blotted as previously described (Huang MB. et al 2004). Blots were incubated with the primary antibodies, anti-CD63 and anti-Alix, followed by goat or rabbit anti-Ig secondary antibodies. Specific bands were detected using ECL chemiluminescent substrate (Santa Cruz Biotechnology, Santa Cruz, CA) and visualized on the ImageQuant LAS 4000 imaging system (GE Healthcare, Piscataway, NJ 08854).
(§4) Western blot analysis was used to examine the effects of the SMRwt peptides, PEG-SMRwt-Clu peptide and SMRwt-CPP peptide, and the mortalin inhibitors MKT-077, Omeprazole, and DMA on EV protein content in MCF-7, MDA-MB-231 and K562 cells. Negative control treatments included the PEG-SMRmut-Clu peptide, […] (SEQ ID NO: 49) and the SMRmut-CPP peptide, […] (SEQ ID NO: 50). EVs were isolated from all treated and untreated cell lines screened. Western blot analyses were carried out to evaluate the expression levels of the exosomal proteins, Alix, mortalin, and vimentin in MCF-7 cells (FIG. 7, Panel A, left sub-panel), MDA-MB-231 cells (FIG. 7, Panel A, middle sub-panel), and K562 cells (FIG. 7, Panel A, right sub-panel).

MCF-7 cells [4] = assay: Western blot analysis of EV protein content; assay type: cell-based; settings: 48 hours treatment; for Alix expression in EVs / Vimentin expression in EVs: relative to negative controls
Procedure: as §1, §3, §4

MDA-MB-231 cells [5] = assay: Western blot analysis of EV protein content; assay type: cell-based; settings: 48 hours treatment
Procedure: as §1, §3, §4

[6] = test system: MCF-7, MDA-MB-231 and K562 cells; assay: Exosome/EV release, overall statements across cell lines (AchE, NanoSight, Western blot); assay type: cell-based; settings: for exosome/EV release (number of EVs released): MCF-7, MDA-MB-231 and K562 cells, five days at 37° C., AchE assay
Procedure: Acetylcholinesterase (AchE) assays, NanoSight analysis and Western blot analysis were performed to characterize EVs released from MCF-7 and MDA-MB-231 cells treated for 48 hr with the various peptides.
To further examine the underlying mechanism for blocking exosome release, a study was extended to examine the effects of the SMRwt peptides, PEG-SMRwt-Clu peptide and SMRwt-CPP peptide, and the mortalin inhibitors MKT-077, Omeprazole, and DMA on exosome release. In particular, acetylcholinesterase (AchE) assays, NanoSight analysis and Western blot analysis were performed to characterize EVs released from MCF-7, MDA-MB-231 and K562 cells. Panels A, B and C depict the relative numbers of EVs released as a function of time as measured by an acetylcholinesterase (AchE) assay in MCF-7 cells (FIG. 6, Panel A); MDA-MB-231 cells (FIG. 6, Panel B); and K562 cells (FIG. 6, Panel C).

[7] = test system: K562, MCF-7 and MDA-MB-231 cultures; assay: Complement-mediated cytotoxicity, overall statements across cell lines; assay type: cell-based; settings: peptide, then anti-CXCR4 antibody and NHS
Procedure: (§5) Therefore, it was of interest to see whether SMR peptide driven mortalin sequestration and functional disruption increases cell sensitivity to complement-induced cell death. Accordingly, MCF-7, MDA-MB-231, and K562 cells were treated with 280 nM PEG-SMRwt-Clu peptide or 560 nM SMRwt-CPP peptide alone for 60 min at 37° C., followed by treatment with 1 μg/mL anti-CXCR4 antibody and 50 μL normal human serum (NHS; as a source of complement) or normal heat-inactivated (human) serum (NIS) for an additional 60 min at 37° C. (FIG. 8). PEG-SMRmut-Clu peptide and SMRmut-CPP peptide were used as negative controls. The percentage of stained (dead) cells was determined by trypan blue exclusion and is representative of 3 independent experiments.
(§6) To further validate the ability of mortalin neutralization to render or enhance complement-mediated cytotoxicity, MCF-7, MDA-MB-231 and K562 cells were transfected with vectors expressing mortalin siRNAs or negative control siRNAs, incubated for 72 hours at 37° C., treated with anti-CXCR4 antibody for 30 minutes at 4° C. followed by incubation with either NHS or NIS for 60 minutes at 37° C.

MCF-7 cells [8] = assay: NanoSight nanoparticle tracking analysis (NTA) of released EVs; assay type: cell-based; settings: MCF-7 cells treated for 48 hr; untreated control 5.16×10^9 particles/ml
Procedure: as §1
(§7) 1.5. EV nanoparticle tracking analysis (NTA). Analysis of absolute size distribution of EVs was performed using NanoSight LM10 with NTA2.3 (NanoSight Ltd., Minton Park, UK). EV particles were automatically tracked and sized based on Brownian motion and the diffusion coefficient. After isolation, the untreated and treated EVs were re-suspended in 0.5 mL of PBS. Control medium and filtered PBS were used as controls in this technique. The NTA measurement conditions were: temperature=21.0+/−0.5° C.; viscosity=0.99+/−0.01 cP; frames per second=25; measurement time=30 s. The detection threshold was similar in all samples. […]

MDA-MB-231 cells [9] = assay: as above; assay type: cell-based; settings: MDA-MB-231 cells treated for 48 hr; control media 4.7×10^9 particles/ml
Procedure: as §1, §7

K562 cells [10] = assay: Complement-mediated cytotoxicity (anti-CXCR4 antibody plus NHS or NIS, trypan blue exclusion); assay type: cell-based; settings: 280 nM PEG-SMRwt-Clu or 560 nM SMRwt-CPP
Procedure: as §5, §6

MCF-7 cells [11] = assay: as above; assay type: cell-based; settings: 280 nM PEG-SMRwt-Clu or 560 nM SMRwt-CPP
Procedure: as §5, §6

MDA-MB-231 cells [12] = assay: as above; assay type: cell-based; settings: 280 nM PEG-SMRwt-Clu or 560 nM SMRwt-CPP
Procedure: as §5, §6

[13] = test system: MCF-7, MDA-MB-231 and K562 cells; settings: previously shown (Huang et al., Oncotarget (2017)); cited from earlier work
[14] = then anti-CXCR4 antibody and NHS

Row | Molecule | average AChE concentrations throughout days 1 to day 5 (MCF-7 cells [1]) [mU/mL] | average AChE concentration levels throughout day 1 to 5 (MDA-MB-231 cells [2]) [mU/mL] | Alix expression in EVs (K562 cells [3]) | Mortalin expression in EVs (K562 cells [3]) | Vimentin expression in EVs (K562 cells [3]) | Mortalin expression in EVs (MCF-7 cells [4]) | Alix expression in EVs (MCF-7 cells [4]) | Vimentin expression in EVs (MCF-7 cells [4]) | Vimentin expression in EVs (MDA-MB-231 cells [5]) | exosome/EV release (number of EVs released) [6] | Mortalin expression in EVs (MDA-MB-231 cells [5]) | also measured
1 | CN(C)c1nc(N)c(C(=O)NC(=N)N)nc1Cl [DMA, 5-(N,N-Dimethyl)amiloride] | 26 | 37 | significantly decreased | significantly decreased | significantly increased | no significant changes | not accompanied by significant reductions | significantly decreased | significantly decreased | reduced the number of EVs released; also recorded: blocked exosome release | – | –
2 | CCn1c(=Cc2cccc[n+]2CC)sc(=C2Sc3ccccc3N2C)c1=O.[Cl-] [MKT-077, 1-Ethyl-2-[[3-ethyl-5-(3-methyl-2(3H)-benzothiazolylidene)-4-oxo-2-thiazolidinylidene]methyl]-pyridinium chloride] | 22 | 29 | significantly decreased | significantly decreased | significantly increased | significantly decreased | significantly decreased | significantly decreased | no significant change | reduced the number of EVs released; also recorded: blocked exosome release | No significant change | –
3 | COc1ccc2[nH]c([S+]([O-])Cc3ncc(C)c(OC)c3C)nc2c1 (stereo not drawn) [Omeprazole, 5-Methoxy-2-[[(4-methoxy-3,5-dimethyl-2-pyridinyl)methyl]sulfinyl]-1H-benzimidazole] | 26 | 25 | significantly decreased | significantly decreased | significantly increased | no significant changes | not accompanied by significant reductions | significantly decreased | no significant change | reduced the number of EVs released; also recorded: blocked exosome release | No significant change | –
4 | AGFPVAAAGFPVGRKKRRQRRRPPQ (SEQ ID NO: 50) (Synthetic SMRmut-CPP) | – | – | – | – | – | – | – | – | – | – | – | AchE concentrations on day 3 (MCF-7 cells [1]): 66.05 mU/mL; AchE concentrations, initial increase (MCF-7 cells [1]): 150.06 mU/mL; AChE on day 1 (initial increase) (MDA-MB-231 cells [2]): 141.47 mU/mL
5 | NXNAGFPVAAAGFPVHPLSKHPYWSQP (SEQ ID NO: 49) [PEG-SMRmut-Clu] | – | – | – | – | – | – | – | – | – | – | – | AchE concentrations on day 3 (MCF-7 cells [1]): 69.0 mU/mL; AchE concentrations, initial increase (MCF-7 cells [1]): 151.5 mU/mL; AChE on day 1 (initial increase) (MDA-MB-231 cells [2]): 146.79 mU/mL
6 | VGFPVAAVGFPVGRKKRRQRRRPPQ [SMRwt-CPP] | – | – | – | – | – | – | – | – | – | – | – | complement-mediated cytotoxicity / cell death in the presence of NHS [7]: induce complement-mediated cytotoxicity
7 | VGFPVAAVGFPVHPLSKHPYWSQP (SEQ ID NO: 47) [PEG-SMRwt-Clu] | 31 | 42 | significantly decreased | significantly decreased | – | significantly decreased | significantly decreased | significantly decreased | significantly decreased | reduced the number of EVs released; also recorded: blocked exosome release | significantly decreased | AchE activity in EVs (MCF-7 cells [1]; MCF-7 cells treated for 48 hr, control EVs 113.49 mU/mL): 41.95 mU/mL; AchE activity in EVs (MDA-MB-231 cells [2]; MDA-MB-231 cells treated for 48 hr, control EVs 118.48 mU/mL): 66.77 mU/mL; number of particles (NTA) (MCF-7 cells [8]): 3.28×10^8 particles/mL; number of particles (NTA) (MDA-MB-231 cells [9]): 6.8×10^8 particles/mL; Alix expression in EVs (MDA-MB-231 cells [5]): significantly decreased; cell death under complement-negative conditions (K562 cells [10]; 60 min): 4.3%; cell death under complement-positive conditions (K562 cells [10]; [14]): 55%; cell death under complement-negative conditions (MCF-7 cells [11]; 60 min): 2.1%; cell death under complement-positive conditions (MCF-7 cells [11]; [14]): 26%; cell death under complement-negative conditions (MDA-MB-231 cells [12]; 60 min): 3.6%; cell death under complement-positive conditions (MDA-MB-231 cells [12]; [14]): 76%; exosome release ([6]; MCF-7 and MDA-MB-231 cells treated for 48 hr): blocks exosome release; complement-mediated cytotoxicity / cell death in the presence of NHS [7]: induce complement-mediated cytotoxicity; exosome release [13]: block exosome release
